US5925667A, “Pyrrolidine derivative, anti-ulcer drug, and antibacterial drug” (Shiseido Co., Ltd., priority 1997, dated 1999)

Experiments:
[1] = test system: isolated gastric fundic gland; test: CAP: Acid Secretion Inhibition Test In Vitro ([14C]-aminopyrine uptake test); type: cell-based, male Japanese White rabbit; conditions: Oryctolagus cuniculus; final concentration 10^-5 M, histamine 10^-5 M; read-out: acid secretion inhibitory rate (CAP)
Experimental: CAP: Acid Secretion Inhibition Test In Vitro
The acid secretion inhibitory activity in a cell level is studied. It can also be used for studying the mechanism of the effect.
ii-a) Preparation of isolated gastric fundus gland suspension
First, an isolated gastric fundic gland sample was prepared. Namely, a male Japanese White rabbit (2.5 to 3 kg) was anesthetized to death with Nembutal™ and then the abdomen was incised. Immediately thereafter, the stomach was removed and, after its pyloric and cardiac antrum were severed, incised along its greater curvature into two sheets. The gastric contents adhering to the mucosal surface was washed out with ice-cooled PBS (-) and then carefully washed therein. The gastric wall was spread on a cork board with its mucosal surface facing up and the feed and mucus thereon were completely removed with sterile gauze. The mucosa was separated therefrom by a spatula and then collected in ice-cooled PBS (-). After being washed twice with PBS (-), the mucosa was minced into 2-3 mm^3 pieces by scissors. These pieces were further washed twice with a nutrient solution. The nutrient solution comprises 132.4 mM of NaCl, 5.4 mM of KCl, 5 mM of Na2 HPO4.12H2 O, 1 mM of NaH2 PO4.2H2,
1.2 mM of MgSO4, 1 mM of CaCl2, 25 mM of HEPES, 2 mg/ml of glucose, and 1 mg/ml of BSA.
Into 70 ml of the nutrient solution containing 1 mg/ml of collagenase, minced mucosal pieces were dispersed and intensely stirred in a conical flask with a stirrer at 37° C. for 40 to 60 minutes. During this period, 100% O2 was sprayed on the nutrient solution surface and the pH was appropriately measured such that it was immediately adjusted to pH 7.4, when the value was therebelow, with a base. The nutrient solution was added to the reaction solution so as to attain the total amount of about 200 ml. After being filtered through a mesh, the suspension was divisionally introduced into 50 ml centrifuge tubes and left for 15 minutes such that gastric fundic gland was deposited. The supernatant was repeatedly removed by an aspirator, dispersed in the nutrient solution, and then left such that the gastric fundic gland was washed three times. At this time, without using a pipette, the suspension was alternately introduced into two centrifuge tubes so as to effect dispersion. The number of cells was counted under microscope and adjusted to 1.6×10^6 cells/ml.
ii-b) [^14 C]-aminopyrine uptake test.
Then, [^14 C]-aminopyrine uptake test was performed. After an Eppendorf tube was weighed, 10 μl (final concentration: 10^-5 M) of histamine dissolved in the above-mentioned nutrient solution, 10 μl (final concentration: 10^-5 M) of the test compound dissolved in DMSO, and 10 μl (final concentration: 0.05 μCi/ml) of [^14 C]-aminopyrine diluted with the nutrient solution were introduced therein and then 970 μl of the isolated gastric fundic gland suspension prepared above was added thereto. Subsequently, this mixture was shaken at 37° C. for 40 minutes at 125 cycles/minute. After being centrifuged for 30 seconds, 200 μl of its supernatant was collected into a mini-vial, while the rest was removed by an aspirator. The gland pellet was completely dried as the tube with its lid being opened was kept for one night in a drying oven at 80° C. and then the lid was closed and the weight was determined at room temperature. Then 100 μl of 1N KOH was added thereto and the tube with its lid being closed was treated at 60° C. for 1 to 2 hours so as to dissolve the pellet. Then, the contents thereof were transferred to a mini-vial. Into the mini-vial containing the supernatant or gland pellet, 4 ml of Atomlite™ was added and then the radioactivity was measured by a liquid scintillation counter. Here, after the radioactivity of the gland pellet was corrected by using a sample in which 20 mM of NaSCN was added so as to cancel the hydrogen ion concentration gradient, the integration ratio of aminopyrine specifically trapped by the gland pellet was calculated. […]

HP NCTC 11637 = test: AHP: Antibacterial Activity Test Against Helicobacter pyroli (agar dilution MIC); type: cell-based; conditions: NCTC11637, 168 h, 7 days

`CCN1CCCC1CNC(=O)c1ccc(OCC=C(C)C)c(OCC=C(C)C)c1` (stereo not shown) [Example 7, 1-ethyl-2-(3,4-diprenyloxybenzoylaminomethyl)pyrrolidine] showed an inhibition at 10 µM [1] of 99.7%.
`CCN1CCCC1CNC(=O)c1cc(OCC=C(C)C)ccc1OCC=C(C)C` (stereo not shown) [Example 6, 1-ethyl-2-(2,5-diprenyloxybenzoylaminomethyl)pyrrolidine] was tested, and the inhibition at 10 µM [1] was 100%.
With `CCN1CCCC1CNC(=O)c1cc(OC/C=C(\C)CCC=C(C)C)ccc1OC/C=C(\C)CCC=C(C)C` (stereo not shown) [Example 10, 1-ethyl-2-(2,5-digeranyloxybenzoylaminomethyl)pyrrolidine] the MIC (HP NCTC 11637) was < 3.13 µg/mL and the inhibition at 10 µM [1] was 100%.
